Experimental data published in the supplement of paper PMC10307832.

Assays:
Test in all cases: relative viability (nuclei count vs DMSO), 5 days (fraction); higher = more cells survive
NCI-H1651 = tested on: NCI-H1651
Outline: (§1)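 Lung cancer cell lines in 1536-well plates got either a single drug or a fixed anchor-drug dose together with five library-drug doses (not always all listed) in √10 steps, by pin tool, on the day after seeding. Nuclei were counted after 5 days, and relative viability is the treated-to-vehicle ratio of nuclei counts. Values are medians of duplicate plates.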

NCI-H2405 = tested on: NCI-H2405
Outline: as §1

NCI-H1792 = tested on: NCI-H1792
Outline: as §1

NCI-H460 = tested on: NCI-H460
Outline: as §1

NCI-H1734 = tested on: NCI-H1734
Outline: as §1

NCI-H1395 = tested on: NCI-H1395
Outline: as §1

NCI-H2342 = tested on: NCI-H2342
Outline: as §1

COR-L23 = tested on: COR-L23
Outline: as §1

NCI-H1975 = tested on: NCI-H1975
Outline: as §1

NCI-H3122 = tested on: NCI-H3122
Outline: as §1

NCI-H2023 = tested on: NCI-H2023
Outline: as §1

NCI-H661 = tested on: NCI-H661
Outline: as §1

A-427 = tested on: A-427
Outline: as §1

SW 1573 = tested on: SW 1573
Outline: as §1

LCLC-97TM1 = tested on: LCLC-97TM1
Outline: as §1

NCI-H838 = tested on: NCI-H838
Outline: as §1

LU99A = tested on: LU99A
Outline: as §1

NCI-H23 = tested on: NCI-H23
Outline: as §1

NCI-H2126 = tested on: NCI-H2126
Outline: as §1

SK-MES-1 = tested on: SK-MES-1
Outline: as §1

ChaGo-K-1 = tested on: ChaGo-K-1
Outline: as §1

LK-2 = tested on: LK-2
Outline: as §1

HARA = tested on: HARA
Outline: as §1

LOU-NH91 = tested on: LOU-NH91
Outline: as §1

Question: Which results are given for `Nc1cccc2c1CN(C1CCC(=O)NC1=O)C2=O` (stereo not drawn) [Lenalidomide] + CC(=O)Nc1cccc(-n2c(=O)n(C3CC3)c(=O)c3c(Nc4ccc(I)cc4F)n(C)c(=O)c(C)c32)c1 [Trametinib] (partner 0.02 µM)?
Answer: relative viability (NCI-H1651; first compound 0.253 µM): 0.79; relative viability (NCI-H1651; first compound 0.8 µM): 0.932; relative viability (NCI-H1651; first compound 2.53 µM): 0.902; relative viability (NCI-H1651; first compound 8 µM): 0.82; relative viability (NCI-H2405; first compound 0.253 µM): 0.648; relative viability (NCI-H2405; first compound 0.8 µM): 0.657; relative viability (NCI-H2405; first compound 2.53 µM): 0.654; relative viability (NCI-H2405; first compound 8 µM): 0.546; relative viability (NCI-H1792; first compound 0.253 µM): 0.445; relative viability (NCI-H1792; first compound 0.8 µM): 0.369; relative viability (NCI-H1792; first compound 2.53 µM): 0.59; relative viability (NCI-H1792; first compound 8 µM): 0.366; relative viability (NCI-H460; first compound 0.253 µM): 0.0785; relative viability (NCI-H460; first compound 0.8 µM): 0.13; relative viability (NCI-H460; first compound 2.53 µM): 0.127; relative viability (NCI-H460; first compound 8 µM): 0.19; relative viability (NCI-H1734; first compound 0.253 µM): 0.69; relative viability (NCI-H1734; first compound 0.8 µM): 0.606; relative viability (NCI-H1734; first compound 2.53 µM): 0.702; relative viability (NCI-H1734; first compound 8 µM): 0.605; relative viability (NCI-H1395; first compound 0.253 µM): 0.988; relative viability (NCI-H1395; first compound 2.53 µM): 1.1; relative viability (NCI-H1395; first compound 8 µM): 0.929; relative viability (NCI-H2342; first compound 0.253 µM): 0.796; relative viability (NCI-H2342; first compound 0.8 µM): 0.894; relative viability (NCI-H2342; first compound 2.53 µM): 0.739; relative viability (NCI-H2342; first compound 8 µM): 0.692; relative viability (COR-L23; first compound 0.253 µM): 0.613; relative viability (COR-L23; first compound 0.8 µM): 0.677; relative viability (COR-L23; first compound 2.53 µM): 0.678; relative viability (COR-L23; first compound 8 µM): 0.508; relative viability (NCI-H1975; first compound 0.253 µM): 0.388; relative viability (NCI-H1975; first compound 0.8 µM): 0.201; relative viability (NCI-H1975; first compound 2.53 µM): 0.36; relative viability (NCI-H1975; first compound 8 µM): 0.234; relative viability (NCI-H3122; first compound 0.253 µM): 0.234; relative viability (NCI-H3122; first compound 0.8 µM): 0.246; relative viability (NCI-H3122; first compound 2.53 µM): 0.253; relative viability (NCI-H3122; first compound 8 µM): 0.205; relative viability (NCI-H2023; first compound 0.253 µM): 0.554; relative viability (NCI-H2023; first compound 0.8 µM): 0.584; relative viability (NCI-H2023; first compound 2.53 µM): 0.444; relative viability (NCI-H2023; first compound 8 µM): 0.504; relative viability (NCI-H661; first compound 0.253 µM): 0.529; relative viability (NCI-H661; first compound 0.8 µM): 0.593; relative viability (NCI-H661; first compound 2.53 µM): 0.591; relative viability (NCI-H661; first compound 8 µM): 0.533; relative viability (A-427; first compound 0.253 µM): 0.731; relative viability (A-427; first compound 0.8 µM): 0.724; relative viability (A-427; first compound 2.53 µM): 0.825; relative viability (A-427; first compound 8 µM): 0.765; relative viability (SW 1573; first compound 0.253 µM): 0.583; relative viability (SW 1573; first compound 0.8 µM): 0.67; relative viability (SW 1573; first compound 2.53 µM): 0.583; relative viability (SW 1573; first compound 8 µM): 0.596; relative viability (LCLC-97TM1; first compound 0.253 µM): 0.183; relative viability (LCLC-97TM1; first compound 0.8 µM): 0.239; relative viability (LCLC-97TM1; first compound 2.53 µM): 0.212; relative viability (LCLC-97TM1; first compound 8 µM): 0.159; relative viability (NCI-H838; first compound 0.253 µM): 0.517; relative viability (NCI-H838; first compound 0.8 µM): 0.463; relative viability (NCI-H838; first compound 2.53 µM): 0.625; relative viability (NCI-H838; first compound 8 µM): 0.378; relative viability (LU99A; first compound 0.253 µM): 0.509; relative viability (LU99A; first compound 0.8 µM): 0.537; relative viability (LU99A; first compound 2.53 µM): 0.644; relative viability (LU99A; first compound 8 µM): 0.425; relative viability (NCI-H23; first compound 0.253 µM): 0.398; relative viability (NCI-H23; first compound 2.53 µM): 0.426; relative viability (NCI-H23; first compound 8 µM): 0.412; relative viability (NCI-H2126; first compound 0.253 µM): 0.572; relative viability (NCI-H2126; first compound 0.8 µM): 0.526; relative viability (NCI-H2126; first compound 2.53 µM): 0.597; relative viability (NCI-H2126; first compound 8 µM): 0.462; relative viability (SK-MES-1; first compound 0.253 µM): 0.599; relative viability (SK-MES-1; first compound 0.8 µM): 0.628; relative viability (SK-MES-1; first compound 2.53 µM): 0.568; relative viability (SK-MES-1; first compound 8 µM): 0.578; relative viability (ChaGo-K-1; first compound 0.253 µM): 0.925; relative viability (ChaGo-K-1; first compound 0.8 µM): 0.897; relative viability (ChaGo-K-1; first compound 2.53 µM): 1.02; relative viability (ChaGo-K-1; first compound 8 µM): 0.904; relative viability (LK-2; first compound 0.253 µM): 0.772; relative viability (LK-2; first compound 0.8 µM): 0.747; relative viability (LK-2; first compound 2.53 µM): 0.746; relative viability (LK-2; first compound 8 µM): 0.717; relative viability (HARA; first compound 0.253 µM): 0.715; relative viability (HARA; first compound 2.53 µM): 0.542; relative viability (HARA; first compound 8 µM): 1.04; relative viability (LOU-NH91; first compound 0.253 µM): 0.786; relative viability (LOU-NH91; first compound 0.8 µM): 0.78; relative viability (LOU-NH91; first compound 2.53 µM): 0.771; relative viability (LOU-NH91; first compound 8 µM): 0.679
